Entries after “also recorded” stand apart in the source; their conditions may differ.
How the values were obtained:
[1] = system: THP-1 cells (DNFB-induced CD54 and CD86 expression); assay: Inhibition of THP-1 maturation induced by the allergen DNFB (anti-allergic activity); assay type: cell-based, human; settings: DNFB 8 µM
Method: The human keratinocytes (HaCaT, CLS 300493, Eppelheim, Germany) cell line was cultured with Dulbecco’s Modified Eagle’s Medium (DMEM) (Sigma-Aldrich, St. Louis, MO, USA), supplemented with 10% (v/v) of heat-inactivated fetal bovine serum (FBS), 1% (v/v) antibiotic solution (from a 10,000 U/mL penicillin and 10,000 μg/mL streptomycin stock) (Gibco, Carlsbad, CA, USA), 3.7 g/L sodium bicarbonate, and 1 mM sodium pyruvate (Sigma-Aldrich, St. Louis, MO, USA). The cell culture of keratinocytes was detached with EDTA solution 1X (Sigma-Aldrich, St. Louis, MO, USA) when the cells reached 70–80% confluence in cell culture flasks. The mouse macrophage cell line (RAW 264.7, ATCC TIB-71, Manassas, VA, USA) was cultured in DMEM supplemented with 10% (v/v) non-inactivated FBS, 1% (v/v) antibiotic solution, 1.5 g/L sodium bicarbonate, and 1 mM sodium pyruvate. Macrophages were mechanically detached with a cell scraper and subcultured in (1:10) proportion of cellular suspension to a final volume of DMEM. The human monocytic cell line THP-1 (ATCC® TIB-202™, American Type Culture Collection, Manassas, VA, USA) was cultivated in RPMI 1640 supplemented with 10% inactivated FBS, 25 mM (D)-glucose, 10 mM HEPES, 1 mM sodium pyruvate, 100 U/mL penicillin, and 100 μg/mL streptomycin, and maintained at a cell density of 0.4 × 10^6 cells/mL. Cells were subcultured every 2 or 3 days and maintained in culture for 2–3 months, according to ATCC® instructions.
Following OECD guidelines, researchers utilized the THP-1 human monocyte cell line as a substitute for dendritic cells (DCs) to assess skin sensitization potential. Adapting OECD Test Guideline No. 442E [24], cell density was adjusted to 5.0 × 10^5 cells/mL and allowed to stabilize overnight at 37 °C. Then, 1.5 mL/well of cell suspension was added to a 12-well plate, and solutions of AA, AAG, and AAGS (500 µM) were applied. After 1 h of pre-incubation, a solution of DNFB was added (8 µM), and the cells were further incubated for 24 h. Afterwards, the cells were centrifuged at 300× g for 5 min, the supernatant was discarded, and the cell pellet was washed with PBS containing 1% FBS (2 × 1 mL) and centrifuged. The cell pellet was resuspended in 1 mL of PBS/1% FBS and 200 µL were collected in two microtubes: 100 µL for the unstained (UNST) and 100 µL for the stained (CD5486) conditions. For each stained condition, anti-CD54-APC and anti-CD86-Alexa Fluor 488 (BioLegend, London, UK) were added, and the cells were incubated for 30 min at 4 °C, protected from light. Then, cells were washed twice with 1 mL PBS/1% FBS solution and centrifuged. The cell pellet was further resuspended in 100 µL of PBS and analyzed by flow cytometry using a BD Accuri™ C6 cytometer (San Jose, CA, USA).
CD86 and CD54 levels were analyzed by flow cytometry using the acquisition channels FL1 and FL4. Mitochondrial O2^− production was measured by flow cytometry using the acquisition channel FL2. The relative fluorescence intensity (RFI) of CD86 and CD54 (THP-1 maturation assay) and MitoSOX (mitochondrial antioxidant activity) in the control and chemical-treated cells, based on the geometric mean fluorescence intensity (MFI), was calculated according to the following equation: RFI=MFI of chemical treated cells−MFI of chemical treated unstained cells/MFI of control treated cells−MFI of control unstained cells ×100
The results of at least three independent experiments were represented as a percentage of the control RFI, which was assumed to be 100%.

[2] = DPPH radical scavenging assay; settings: ethanol, 15 min in the dark, 517 nm; ± SD
Method: Stock solutions of each compound (100 µM) and DPPH solution (150 µM) were prepared in ethanol. Different concentrations of antioxidant solutions (0.1–50 µM) were prepared to test their antioxidant effect. In a 96-well plate, 100 µL of DPPH working solution was added to a 100 µL sample solution and incubated at room temperature for 15 min in the dark. The absorbance of each sample was measured at 517 nm, in a microplate reader. For the negative control, 100 μL ethanol was added instead of the antioxidant solution. Rutin was used as the positive control. Inhibition curves were constructed, and the half maximal effective concentration (EC50) values were calculated for all samples by linear regression for the three independent assays performed.

[3] = Photostability under UVA + UVB radiation; assay type: physicochemical; settings: for variation in absorbance after irradiation: UVA + UVB, up to 15 min
Method: Three independent compound solutions (100 µM) were prepared and exposed to light. A volume of 50 mL of each sample replicate was exposed side-by-side under a UV lamp at a […] distance through an appropriate duration of time. These conditions were monitored using calibrated radiometers. The lamp used as light source for the photostability assay emitted an irradiance of 0.62 mW/cm^2 and 0.74 mW/cm^2 of UVA and UVB light, respectively. A UV lamp (Osram, Ultra-Vitalux, 300 W) was positioned at a height of 54 cm. The UV lamp was turned on 1 h before the experiment, and the UVA and UVB irradiances were measured, maintaining the controlled temperature. At the end of the exposure period, the absorbance spectrum was measured between 200 nm and 800 nm using a UV–vis spectrophotometer. The exposed samples were analyzed concomitantly with protected samples (dark controls). Photostability was evaluated by comparing the UV–vis spectra at each evaluation time for each antioxidant.

[4] = DSC thermal analysis and compatibility with excipients; assay type: physicochemical; settings: for compatibility with Carbopol 980 (CP) / compatibility with hydroxyethylcellulose (HEC) / compatibility with miglyol 812 (MIG) / compatibility with stearyl alcohol (SA) / compatibility with tocopherol (TP) / compatibility with EDTA: 1:1 (w/w) mixture; for Tonset / Tpeak / ΔH: compound alone, 10 °C/min, nitrogen
Method: A differential scanning calorimeter (DSC) 200F3 Maia (Netzsh-Gerätebau GmbH, Selb, Germany) was used for thermal analysis of the ingredients and mixtures. Typical excipients of topical formulations with different functions were selected for this study. The physical mixtures between compounds and the excipients were prepared in a ratio of 1:1 (w/w). Individual samples and the physical mixtures were weighed directly in the pierced DSC aluminum pan and scanned in the temperature range of 20–400 °C under nitrogen atmosphere with flow of 40 mL/min, with a heating rate of 10 °C/min. An empty aluminum pan was used as reference. The onset temperature and melting enthalpy (ΔH) were calculated using Proteus Analysis software (Version 6.1, NETZSCH-Gerätebau GmbH, Germany). The DSC cell was calibrated (sensitivity and temperature calibration) with Hg (m.p. −38.8 °C), In (m.p. 156.6 °C), Sn (m.p. 231.9 °C), Bi (m.p. 271.4 °C), Zn (m.p. 419.5 °C), and CsCl (m.p. 476.0 °C) as standards.

[5] = compound 500 µM, 1 h pre-incubation, 24 h, mean ± SEM

Row | Structure (SMILES) | anti-allergic profile regarding CD86 ([1]; 500 µM) | inhibition of DNFB-induced maturation of THP-1 cells ([1]; 500 µM) | RFI of CD54 expression, DNFB-induced maturation [1, 5] | RFI of CD86 expression, DNFB-induced maturation [1, 5] | EC50 [2] [µM] | variation in absorbance after irradiation [3] | compatibility with Carbopol 980 (CP) [4] | compatibility with hydroxyethylcellulose (HEC) [4] | compatibility with miglyol 812 (MIG) [4] | compatibility with stearyl alcohol (SA) [4] | compatibility with tocopherol (TP) [4] | Tonset [4] [°C] | Tpeak [4] [°C] | ΔH [4] [J/g] | increase of absorbance (hyperchromic effect) ([3]; after 5 min of UV exposure (UVA + UVB)) [%] | compatibility with EDTA [4]
1 | O=C1OC(C(COS(=O)(=O)O)OS(=O)(=O)O)C(OS(=O)(=O)O)=C1OC1OC(COS(=O)(=O)O)C(OS(=O)(=O)O)C(OS(=O)(=O)O)C1OS(=O)(=O)O [AAGS, 2-O-α-D-glucopyranosyl-L-ascorbic acid persulfate] | exhibited anti-allergic profile | anti-allergic activity | 986.89% ± 80.51% | 168.90% ± 16.30% | 5.28 ± 0.36 | practically imperceptible | Weak interferences | more compatible; also recorded: favorable compatibility | more compatible | Weak interferences | more compatible | 195.0 | 200.5 | 223.1 |  | 
2 | O=C1O[C@H]([C@@H](O)CO)C(O)=C1O [AA, Ascorbic acid] | exhibited anti-allergic profile |  |  |  | 1.54 ± 0.21 |  | Weak interferences |  |  |  |  | 192.9 | 197.1 | -328.6 | ~50 | Weak interferences
3 | O=C1O[C@H]([C@@H](O)CO)C(O)=C1O[C@H]1O[C@H](CO)[C@@H](O)[C@H](O)[C@H]1O [AAG, 2-O-α-D-glucopyranosyl-L-ascorbic acid] |  |  | 995.78% ± 80.51% |  | 9.15 ± 0.13 | slight variation in the absorbance |  | Weak interferences | more compatible | Weak interferences | more compatible | 173.0 | 176.4 | -139.8 |  | more compatible

From publication PMC11477482 (Molecules, 2024)
